In patent publication US12091402B2 (Avilar Therapeutics, Inc., priority 2021, dated 2024):
Read-outs that look alike come from different tables or passages of the source. *1 amine or outer side, *2 acyl side, *3 side chain or, on linkers, in order; H or OH if unused. Where a SMILES comes first, the peptide text is derived from it. Bridges are numbered along the chain shown (N, C = ends). [ ]: non-standard residue; d: D form. The star is where a group is joined. X2 = O=C(CCOCC(COCCC(=O)NCCOCCOCCOCCOC[C@H]1OC[C@H](Nc2cncc(C(F)(F)F)n2)[C@@H](O)[C@H]1O)NCC(=O)*)NCCOCCOCCOCCOC[C@H]1OC[C@H](Nc2cncc(C(F)(F)F)n2)[C@@H](O)[C@H]1O; X1 = O=C([C@@H]1C[C@H](N[*:3])CN1[*:1])[*:2]

Legend:
[1] = biological target: T1, ASGPR receptor on the cell surface (HepG2 cells) (Homo sapiens, UniProt P07306); assay: Ternary complex formation assay (flow cytometry, HepG2); type: cell-based
T1 construct: host or cells: HepG2
T1 sequence (P07306 1-291): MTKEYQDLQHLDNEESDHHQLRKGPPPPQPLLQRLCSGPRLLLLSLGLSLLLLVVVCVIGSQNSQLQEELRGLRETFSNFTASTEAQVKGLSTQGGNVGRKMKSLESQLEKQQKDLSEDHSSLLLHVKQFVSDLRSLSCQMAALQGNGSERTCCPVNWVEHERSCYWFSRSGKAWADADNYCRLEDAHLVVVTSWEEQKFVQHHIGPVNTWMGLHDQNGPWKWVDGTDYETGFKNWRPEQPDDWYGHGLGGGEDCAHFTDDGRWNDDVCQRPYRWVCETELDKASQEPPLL
T1 sequence (P07307 1-311 partner): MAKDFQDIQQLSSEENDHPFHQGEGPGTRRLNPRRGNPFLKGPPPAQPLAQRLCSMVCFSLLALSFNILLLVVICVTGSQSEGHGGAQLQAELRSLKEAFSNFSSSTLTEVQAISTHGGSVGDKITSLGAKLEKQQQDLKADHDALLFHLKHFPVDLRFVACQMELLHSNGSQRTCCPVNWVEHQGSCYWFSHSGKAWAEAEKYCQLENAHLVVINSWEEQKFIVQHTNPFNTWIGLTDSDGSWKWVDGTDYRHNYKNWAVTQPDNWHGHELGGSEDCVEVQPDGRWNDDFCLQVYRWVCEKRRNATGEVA
Procedure, shortened: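 HepG2 cells (1×10^5/well) incubated 1 h at 4 °C with 100 nM AF488-labeled anti-human IgG plus serial IgG-based degrader, or 100 nM AF488 rabbit anti-DNP plus serial DNP-based degrader. After washing, cell-associated AF488 MFI read by flow cytometry; peak MFI marks optimal degrader concentration for ternary complex.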

[2] = biological target: T2, ASGPR (Homo sapiens, UniProt P07306); assay: Affinity to ASGPR by surface plasmon resonance (SPR)
T2 sequence (P07306 1-291): T1 sequence (P07306 1-291)
Procedure: Biotinylated ASGPR (20 μg/ml) was immobilized on SA sensor chips (GE Healthcare) at flow rate of 5 μl/min for 90 sec reaching an immobilization level ranging from 500-3000 resonance units (RU). The running buffer was 50 mM HEPES, pH7.5, 150 mM NaCl, 50 mM CaCl2), 0.01% P20, 3% DMSO. The concentration of compounds vary from 2 mM to 5 nM depending on Kd values. The compounds are diluted 2 or 3-fold with 8 concentration points. Solutions containing serially diluted compounds are injected at a flow rate of 40 μL/min for 150-300 sec followed by a 90-300 sec dissociation phase for each concentration. The surface was regenerated using 50 mM HEPES, pH 7.5, 150 mM NaCl, 5 mM EDTA, 0.01% P20, 3% DMSO.
Data was processed using the analysis software in Biacore 8K to perform background subtraction, double referencing, and solvent correction. Values of affinity expressed as the dissociation constants (Kd) were determined by fitting the steady state binding responses (RUs) as a function of the concentration ([Compound]) using the following equation: RU=RUmax/(KD+[Compound]), where RU max is the calculated maximal response. Where appropriate double-referenced data were fit to using a 1:1 binding model for kinetic analysis.

[3] = system: HepG2 cells; assay: Cellular uptake assay of AF488-labeled antibody (HepG2); type: cell-based
Procedure, shortened: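 Ternary-complex uptake via ASGPR was imaged after fixation: the read-out is AF488-positive HepG2 cells divided by total DAPI nuclei. Degrader dilutions (IgG- or DNP-based, 0.1% DMSO final) were co-incubated 6 h at 37° C. with 100 nM of the corresponding fluorescent antibody.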

[4] = biological target: IgG; assay: Affinity to IgG by surface plasmon resonance (SPR); type: binding
Procedure: Immobilization levels ranging from 1000-1300 resonance units (RU) are obtained. The running buffer is 10 mM HEPES, pH 7.4, 400 mM NaCl, 0.005% P20, […].

[5] = HepG2 cells, read-out: Uptake EC50
[6] = HepG2 cells, ternary complex formation, read-out: TCF EC50

Row | Compound | EC50 [1] | Kd [2] | EC50 [3, 5] | Kd ([4]; SPR, read-out: IgG KD) | EC50 [1, 6] | EC50 ([3]; read-out: Uptake Assay EC50) | Kd ([4]; read-out: IgG SPR Binding Kd) | EC50 ([3]; HepG2 cells, 100 nM AF488-labeled antibody, 37° C. for 6 hours, class symbols, read-out: Uptake Assay EC50) | Kd ([4]; Biacore 8K, 25° C., IgG on CM5 chip, read-out: IgG SPR Binding Kd) | EC50 ([1]; TCF EC50, HepG2 cells, ternary complex formation) | EC50 ([1]; Ternary Complex EC50 (nM), HepG2 cells, 100 nM AF488-labeled antibody, 1 hour at 4° C., class symbols) | EC50 ([3]; Homo sapiens, HepG2, 6 h, read-out: Uptake Assay EC50 (nM))
1 | CC(C)C[C@@H]1NC(=O)[C@H](Cc2c[nH]cn2)NC(=O)[C@H](Cc2c[nH]c3ccccc23)NC(=O)[C@H](C)NC(=O)[C@@H]2CSSC[C@H](NC(=O)[C@H](Cc3c[nH]c4ccccc34)NC(=O)[C@H](C(C)C)NC(=O)[C@H](CC(C)C)NC(=O)[C@H](CCC(=O)N(C)C)NC(=O)CNC1=O)C(=O)N[C@@H]([C@@H](C)O)C(=O)N1CCC[C@@H]1C(=O)N1C[C@@H](NC(=O)CNC(COCCC(=O)NCCOCCOCCOCCOC[C@H]3OC[C@H](Nc4cncc(C(F)(F)F)n4)[C@@H](O)[C@H]3O)COCCC(=O)NCCOCCOCCOCCOC[C@H]3OC[C@H](Nc4cncc(C(F)(F)F)n4)[C@@H](O)[C@H]3O)C[C@H]1C(=O)N[C@@H](CC(=O)O)C(=O)N2 [Compound 75] | < 100 nM | < 100 nM | < 100 nM | < 100 nM |  |  |  |  |  |  |  | 
2 | CC(C)C[C@@H]1NC(=O)[C@H](Cc2cnc[nH]2)NC(=O)[C@H](Cc2c[nH]c3ccccc23)NC(=O)[C@H](C)NC(=O)[C@@H]2CSSC[C@H](NC(=O)[C@H](Cc3c[nH]c4ccccc34)NC(=O)[C@H](C(C)C)NC(=O)[C@H](CC(C)C)NC(=O)[C@H](CCC(=O)O)NC(=O)CNC1=O)C(=O)N[C@@H]([C@@H](C)O)C(=O)N1CCC[C@@H]1C(=O)N1C[C@@H](NC(=O)C3CCC(C(=O)NC[C@H]4OC[C@H](Nc5cncc(C(F)(F)F)n5)[C@@H](O)[C@H]4O)CC3)C[C@H]1C(=O)N[C@@H](CC(=O)O)C(=O)N2 (stereo partly drawn) [Compound 69] |  | 100 to 500 nM | > 1000 nM | < 100 nM | > 1000 nM |  |  |  |  |  |  | 
3 | CC(C)C[C@@H]1NC(=O)[C@H](Cc2c[nH]cn2)NC(=O)[C@H](Cc2c[nH]c3ccccc23)NC(=O)[C@H](C)NC(=O)[C@@H](NC(=O)[C@H](CC(=O)O)NCCOCCOCCOCCOCCNC(=O)CCCc2cn(CCCCCC(=O)NC(COCCC(=O)NCCOCCOCCOCCOC[C@H]3OC[C@H](Nc4nccc(C(F)(F)F)n4)[C@@H](O)[C@H]3O)COCCC(=O)NCCOCCOCCOCCOC[C@H]3OC[C@H](Nc4nccc(C(F)(F)F)n4)[C@@H](O)[C@H]3O)nn2)CSSC[C@@H](C(=O)N[C@H](C(N)=O)[C@@H](C)O)NC(=O)[C@H](Cc2c[nH]c3ccccc23)NC(=O)[C@H](C(C)C)NC(=O)[C@H](CC(C)C)NC(=O)[C@H](CCC(=O)O)NC(=O)CNC1=O [Compound 10] | < 100 nM | < 100 nM |  |  |  | < 100 nM | < 100 nM |  |  |  |  | 
4 | CC(C)C[C@@H]1NC(=O)[C@H](Cc2c[nH]cn2)NC(=O)[C@H](Cc2c[nH]c3ccccc23)NC(=O)[C@H](C)NC(=O)[C@@H]2CSSC[C@H](NC(=O)[C@H](Cc3c[nH]c4ccccc34)NC(=O)[C@H](C(C)C)NC(=O)[C@H](CC(C)C)NC(=O)[C@H](CCC(=O)O)NC(=O)CNC1=O)C(=O)N[C@@H]([C@@H](C)O)C(=O)N1CCC[C@@H]1C(=O)N1C[C@@H](NC(=O)CCOCCNC(=O)CCCc3cn(CCCCCC(=O)NC(COCCC(=O)NCCOCCOCCOCCOC[C@@]45CO[C@@H](O4)[C@H](Nc4nc(Cl)ns4)[C@@H](O)[C@H]5O)COCCC(=O)NCCOCCOCCOCCOC[C@@]45CO[C@@H](O4)[C@H](Nc4nc(Cl)ns4)[C@@H](O)[C@H]5O)nn3)C[C@H]1C(=O)N[C@@H](CC(=O)O)C(=O)N2 [Compound 9] | < 100 nM | < 100 nM |  |  |  |  |  | < 100 nM | < 100 nM |  |  | 
5 | CC(C)C[C@@H]1NC(=O)[C@H](Cc2c[nH]cn2)NC(=O)[C@H](Cc2c[nH]c3ccccc23)NC(=O)[C@H](C)NC(=O)[C@@H]2CSSC[C@H](NC(=O)[C@H](Cc3c[nH]c4ccccc34)NC(=O)[C@H](C(C)C)NC(=O)[C@H](CC(C)C)NC(=O)[C@H](CCC(=O)O)NC(=O)CNC1=O)C(=O)N[C@@H]([C@@H](C)O)C(=O)N1CCC[C@@H]1C(=O)N1C[C@@H](NC(=O)c3ccc(N4CCC(CN5CCN(C[C@H]6OC[C@H](Nc7cncc(C(F)(F)F)n7)[C@@H](O)[C@H]6O)CC5)CC4)cc3)C[C@H]1C(=O)N[C@@H](CC(=O)O)C(=O)N2 [Compound 68] | < 100 nM | < 100 nM | < 100 nM | < 100 nM |  |  |  |  |  |  |  | 
6 | CC(C)C[C@@H]1NC(=O)[C@H](C)NC(=O)CNC(=O)[C@H](CC(C)C)NC(=O)[C@H](Cc2cnc[nH]2)NC(=O)[C@H](Cc2c[nH]c3ccccc23)NC(=O)[C@H](C)NC(=O)[C@@H]2CSSC[C@H](NC(=O)[C@H](Cc3c[nH]c4ccccc34)NC(=O)[C@H](C(C)C)NC1=O)C(=O)N[C@@H]([C@@H](C)O)C(=O)N1CCC[C@@H]1C(=O)N1C[C@@H](NC(=O)CNC(COCCC(=O)NCCOCCOCCOCCOC[C@H]3OC[C@H](Nc4cncc(C(F)(F)F)n4)[C@@H](O)[C@H]3O)COCCC(=O)NCCOCCOCCOCCOC[C@H]3OC[C@H](Nc4cncc(C(F)(F)F)n4)[C@@H](O)[C@H]3O)C[C@H]1C(=O)N[C@@H](C)C(=O)N2 [Compound 76] (cyclo(ACAWHLGALVWCT[dP][X1](X2)); disulfide 2-12) |  | < 100 nM | < 100 nM | < 100 nM |  |  |  |  |  | < 100 nM |  | 
7 | CC(C)C[C@@H]1NC(=O)[C@H](Cc2cnc[nH]2)NC(=O)[C@H](Cc2c[nH]c3ccccc23)NC(=O)[C@H](C)NC(=O)[C@@H]2CSSC[C@H](NC(=O)[C@H](Cc3c[nH]c4ccccc34)NC(=O)[C@H](C(C)C)NC(=O)[C@H](CC(C)C)NC(=O)[C@H](CCC(=O)O)NC(=O)CNC1=O)C(=O)N[C@@H]([C@@H](C)O)C(=O)N1CCC[C@@H]1C(=O)N1C[C@@H](NC(=O)CC(=O)NC[C@H]3OC[C@H](Nc4cncc(C(F)(F)F)n4)[C@@H](O)[C@H]3O)C[C@H]1C(=O)N[C@@H](CC(=O)O)C(=O)N2 [Compound 62] |  | < 100 nM | < 100 nM | < 100 nM | < 100 nM |  |  |  |  |  |  | 
8 | CC(C)C[C@@H]1NC(=O)[C@H](Cc2cnc[nH]2)NC(=O)[C@H](Cc2c[nH]c3ccccc23)NC(=O)[C@H](C)NC(=O)[C@@H]2CSSC[C@H](NC(=O)[C@H](Cc3c[nH]c4ccccc34)NC(=O)[C@H](C(C)C)NC(=O)[C@H](CC(C)C)NC(=O)[C@H](CCC(=O)O)NC(=O)CNC1=O)C(=O)N[C@@H]([C@@H](C)O)C(=O)N1CCC[C@@H]1C(=O)N1C[C@@H](NC(=O)CNC(COCCC(=O)NC[C@H]3OC[C@H](Nc4cncc(C(F)(F)F)n4)[C@@H](O)[C@H]3O)COCCC(=O)NC[C@H]3OC[C@H](Nc4cncc(C(F)(F)F)n4)[C@@H](O)[C@H]3O)C[C@H]1C(=O)N[C@@H](CC(=O)O)C(=O)N2 [Compound 65] |  | < 100 nM | < 100 nM | < 100 nM | < 100 nM |  |  |  |  |  |  | 
9 | CC(=O)N[C@H]1[C@H](OCCOCCOCCOCCNC(=O)CCOCC(COCCC(=O)NCCOCCOCCOCCO[C@@H]2O[C@H](CO)[C@H](O)[C@H](O)[C@H]2NC(C)=O)NC(=O)CCCCCn2cc(CCCC(=O)NCCOCCOCCOCCOCCC(=O)N[C@H]3C[C@H]4C(=O)N[C@@H](CC(=O)O)C(=O)N[C@H]5CSSC[C@H](NC(=O)[C@H](Cc6c[nH]c7ccccc67)NC(=O)[C@H](C(C)C)NC(=O)[C@H](CC(C)C)NC(=O)[C@H](CCC(=O)O)NC(=O)CNC(=O)[C@H](CC(C)C)NC(=O)[C@H](Cc6c[nH]cn6)NC(=O)[C@H](Cc6c[nH]c7ccccc67)NC(=O)[C@H](C)NC5=O)C(=O)N[C@@H]([C@@H](C)O)C(=O)N5CCC[C@@H]5C(=O)N4C3)nn2)O[C@H](CO)[C@H](O)[C@@H]1O [Compound 84] | > 1000 nM | > 1000 nM | > 1000 nM | < 100 nM |  |  |  |  |  |  |  | 
10 | O=C(CCOCC(COCCC(=O)NCCOCCOCCOCCOC[C@H]1OC[C@H](Nc2nccc(C(F)(F)F)n2)[C@@H](O)[C@H]1O)NC(=O)COCCOCCOCCNc1ccc([N+](=O)[O-])cc1[N+](=O)[O-])NCCOCCOCCOCCOC[C@H]1OC[C@H](Nc2nccc(C(F)(F)F)n2)[C@@H](O)[C@H]1O [Compound 32, 3,3′-((2-(2-(2-(2-(2-((2,4-dinitrophenyl)amino)ethoxy)ethoxy)ethoxy)acetamido)propane-1,3-diyl)bis(oxy))bis(N-(1-((2R,3R,4R,5S)-3,4-dihydroxy-5-((4-(trifluoromethyl)pyrimidin-2-yl)amino)tetrahydro-2H-pyran-2-yl)-2,5,8,11-tetraoxatridecan-13-yl)propanamide)] |  | < 100 nM | < 100 nM | < 100 nM | < 100 nM |  |  |  |  |  | < 100 nM | < 100 nM
